PMC11750672, “The in vivo metabolic pathway of Deg-AZM and in vitro investigations into the contribution of drug metabolizing enzymes and drug transporters in the drug interactions of Deg-AZM, a clinical-stage new transgelin agonist” (Frontiers in Pharmacology, 2025)

What was measured:
pooled HLM = assay: HLM phenotyping assay, control group and positive control systems; type: in vitro ADME, human; conditions: 1 μM, HLM 0.5 mg/mL, NADPH, 90 min, control group without inhibitors
Description: (§1) Deg-AZM (1 μM) was treated with pooled HLM (0.5 mg/mL) and NADPH (1 mM) for 90 min with or without seven specific inhibitors (10 µM furafylline for CYP1A2, 10 µM ticlopidine for CYP2B6, 5 µM montelukast for CYP2C8, 10 µM sulfaphenazole for CYP2C9, 10 µM ticlopidine for CYP2C19, 2.5 µM quinidine for CYP2D6, 1 µM ketoconazole for CYP3A). Isoform-selective probe substrates, 10 µM phenacetin for CYP1A2, 20 µM bupropion for CYP2B6, 2 µM amodiaquine for CYP2C8, 5 µM diclofenac for CYP2C9, 20 µM S-mephenytoin for CYP2C19, 5 µM bufuralol for CYP2D6, 2 µM midazolam for CYP3A4, were used as positive controls.

rCYP3A4 = molecular target: T1, rCYP3A4 (Homo sapiens, UniProt P08684); assay: Recombinant CYPs phenotyping assay; type: in vitro ADME; conditions: 1 μM, 1.5 h
T1 construct: purchased Research Institute for Liver Diseases Co. Ltd., Shanghai
Description: Deg-AZM (1 μM) was treated with pooled NADPH (1 mM) and recombinant CYPs (rCYP1A2, rCYP2B6, rCYP2C8, rCYP2C9, rCYP2C19, rCYP2D6, and rCYP3A4, purchased from Research Institute for Liver Diseases Co. Ltd., Shanghai) at 25 pmol/mL for 90 min. The isoform-selective probe substrates served as positive controls (same as the positive controls in HLM phenotyping assays).

CYP2B6 = assay: CYP induction (mRNA, qPCR) in human hepatocytes; conditions: for CYP2B6 induction, % of PC: PC phenobarbital 1 mM
Excerpt: After culture and complete induction, total mRNA was extracted by TRNzol RNA Extraction Kit (purchased from Tiangen Biochemical Technology Co., Ltd., Beijing). The RNA was reverse transcribed into cDNA according to the instructions of the Transcriptor First Strand cDNA Synthesis Kit (purchased from Roche, Switzerland). Using reverse transcribed cDNA as a template, amplifying the internal reference genes of β-Actin of the sample and target genes of CYP1A2, CYP2B6, and CYP3A4 respectively to compare the expression differences.

human liver microsomes = tested on: human liver microsomes; design: method as in Gu et al., 2024; conditions: ref Gu et al., 2024; cited from earlier work
CYP3A = assay: HLM phenotyping assay with CYP3A inhibitor ketoconazole; type: in vitro ADME, human; conditions: 1 μM, HLM 0.5 mg/mL, NADPH, 90 min, with 1 µM ketoconazole
Description: as §1

[1] = Bidirectional transport in Caco-2 cell monolayer; type: in vitro ADME, human; conditions: human, Caco-2, without quinidine
Description: (§2) The human colon adenocarcinoma Caco-2 cell line was provided by Institute of Basic Medicine, Chinese Academy of Medical Sciences (Beijing, China). Caco-2 cells were cultured in a high sugar DMEM medium containing 10% (v/v) fetal bovine serum at 37°C and 5% CO2 incubator. Caco-2 cells (2.5 ×10^5/mL) was inoculated into Transwell polycarbonate membrane 12 well plate. The culture medium was changed every 2 days for the first 14 days, and then every day. After 21 consecutive days, fully differentiated cell monolayers were obtained for drug transport assays.
(§3) Transepithelial electrical resistance (TEER) was used to indicate monolayer integrity. The electrode of the Millcell ERS-2 voltammeter was placed in HBSS solution for 20 min to pre-balance. At the same time, the culture medium was removed from the Transwell culture plate, 0.5 mL of pre-heated HBSS solution was added into the Apical (AP) of transwell, 1.5 mL of pre-heated HBSS solution was added into the Basolateral (BL) of transwell. After that, the transwell was balanced at 37°C for 20 min and then replaced the HBSS solution with the pre-heated HBSS solution, the TEER value was measured finally. Caco-2 cell monolayers with TEER >350 Ω cm^2 which means that the cells have formed a tight monolayer, were used for the experiment. The TEER value was calculated according to the following formula: TEER=TEERT ‐ TEERc×A where TEERT represented the TEER value (Ω) of the measured Transwell chamber with Caco-2 cells, TEERC was the TEER value (Ω) of the transwell chamber in the control group, and A was the membrane area of the transwell cavity (1.12 cm^2 in this experiment).
(§4) In order to evaluate the usability of the Transwell model research, [^3H] Propranolol (0.5 μCi/mL) and [^14C] PEG4000 (1 μCi/mL) served as high-permeability and impermeability controls to verify the uptake direction on Caco-2 cell monolayer, respectively. Rhodamine 123 was used as a positive control for efflux mechanism in bidirectional transport assay on Caco-2 cell monolayer.
(§5) The transmembrane permeability of Deg-AZM (2, 10 or 50 µM) and the potential to inhibit P-gp by Deg-AZM (2, 10 or 50 µM) were evaluated using Caco-2 cell monolayer both apical-to-basolateral (A-B) and basolateral-to-apical (B-A) directions at 37°C for 1 h, the experiments were conducted using quinidine (50 μM) as the inhibitor for P-gp. At the end of incubation, receiver and donor samples were both diluted by assay buffer and analyzed by LC-MS/MS.

Caco-2 cell monolayer = assay: Bidirectional transport in Caco-2 cell monolayer; type: in vitro ADME, human; conditions: 2, 10 and 50 μM, intake direction
Description: as §2, §3, §4, §5

T1 sequence (P08684 whole entry): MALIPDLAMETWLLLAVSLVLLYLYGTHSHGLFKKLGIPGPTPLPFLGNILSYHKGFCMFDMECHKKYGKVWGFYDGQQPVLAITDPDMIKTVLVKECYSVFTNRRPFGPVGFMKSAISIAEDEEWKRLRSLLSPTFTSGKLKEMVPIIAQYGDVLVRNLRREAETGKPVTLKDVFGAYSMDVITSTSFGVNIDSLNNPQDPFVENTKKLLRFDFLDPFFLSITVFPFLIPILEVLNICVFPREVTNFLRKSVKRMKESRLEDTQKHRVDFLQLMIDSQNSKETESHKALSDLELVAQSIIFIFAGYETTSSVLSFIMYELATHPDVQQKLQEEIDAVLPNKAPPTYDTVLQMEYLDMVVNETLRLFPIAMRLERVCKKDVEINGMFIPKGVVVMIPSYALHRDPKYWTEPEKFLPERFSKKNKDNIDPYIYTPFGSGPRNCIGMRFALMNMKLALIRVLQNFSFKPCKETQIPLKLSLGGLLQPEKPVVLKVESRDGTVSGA

Compound: CCC1OC(=O)C(C)C(O)C(C)C(O)C(C)(O)CC(C)CN(C)C(C)C(O)C1(C)O (stereo not shown) [Deg-AZM, Deglycosylated azithromycin]
- Deg-AZM remaining (pooled HLM): 45.7%
- Average residual proportion of Deg-AZM (rCYP3A4; 25 pmol/mL CYP3A4 monomeric enzyme): 75.9%
- Elimination proportion of Deg-AZM (rCYP3A4; CYP3A4 monomeric enzyme): greater than 15%
- CYP2B6 induction, % of PC (CYP2B6; 5 μM, batch HUB): −0.466%
- CYP2B6 induction, % of PC (CYP2B6; 5 μM, batch LHuf 17905B): 6.61%
- CYP2B6 induction, % of PC (CYP2B6; 5 μM, batch MWB): 4.39%
- CYP2B6 mRNA induction, times of control group (CYP2B6; 5 μM, hepatocyte batch HUB): 0.942
- CYP2B6 mRNA induction, times of control group (CYP2B6; 5 μM, hepatocyte batch LHuf 17905B): 1.61
- CYP2B6 mRNA induction, times of control group (CYP2B6; 5 μM, hepatocyte batch MWB): 1.60
- CYP2B6 induction, % of PC (CYP2B6; 25 μM, batch HUB): 0.0278%
- CYP2B6 induction, % of PC (CYP2B6; 25 μM, batch LHuf 17905B): 5.00%
- CYP2B6 induction, % of PC (CYP2B6; 25 μM, batch MWB): 6.09%
- CYP2B6 mRNA induction, times of control group (CYP2B6; 25 μM, hepatocyte batch HUB): 1.00
- CYP2B6 mRNA induction, times of control group (CYP2B6; 25 μM, hepatocyte batch LHuf 17905B): 1.46
- CYP2B6 mRNA induction, times of control group (CYP2B6; 25 μM, hepatocyte batch MWB): 1.83
- CYP2B6 induction, % of PC (CYP2B6; 100 μM, batch HUB): 2.97%
- CYP2B6 induction, % of PC (CYP2B6; 100 μM, batch LHuf 17905B): 19.8%
- CYP2B6 induction, % of PC (CYP2B6; 100 μM, batch MWB): 24.3%
- CYP2B6 mRNA induction, times of control group (CYP2B6; 100 μM, hepatocyte batch HUB): 1.37
- CYP2B6 mRNA induction, times of control group (CYP2B6; 100 μM, hepatocyte batch LHuf 17905B): 2.84
- CYP2B6 mRNA induction, times of control group (CYP2B6; 100 μM, hepatocyte batch MWB): 4.33
- Induction effect on CYP2B6 (conclusion) (CYP2B6; 5, 25, and 100 µM, three batches of human hepatocytes): has an induction effect
- T1/2 (human liver microsomes): 46.5 min
- Deg-AZM remaining (CYP3A): 93.4%
- Papp A→B at 1 h, 2 μM ([1]; 2 μM, 37°C 1 h, n = 3): 0.326 ± 0.0481 ×10⁻⁶ cm/s
- Papp B→A at 1 h, 2 μM ([1]; 2 μM, 37°C 1 h, n = 3): 5.27 ± 0.771 ×10⁻⁶ cm/s
- efflux ratio at 1 h, 2 μM ([1]; 2 μM, read-out: ER): 16.2
- Papp A→B at 1 h, 10 μM ([1]; 10 μM, 37°C 1 h, n = 3): 0.302 ± 0.0416 ×10⁻⁶ cm/s
- Papp B→A at 1 h, 10 μM ([1]; 10 μM, 37°C 1 h, n = 3): 3.7 ± 0.485 ×10⁻⁶ cm/s
- efflux ratio at 1 h, 10 μM ([1]; 10 μM, read-out: ER): 12.2
- Papp A→B at 1 h, 50 μM ([1]; 50 μM, 37°C 1 h, n = 3): 0.316 ± 0.0201 ×10⁻⁶ cm/s
- Papp B→A at 1 h, 50 μM ([1]; 50 μM, 37°C 1 h, n = 3): 3.16 ± 0.401 ×10⁻⁶ cm/s
- efflux ratio at 1 h, 50 μM ([1]; 50 μM, read-out: ER): 10
- Permeability classification (Caco-2 cell monolayer): low permeability drug with poor transmembrane ability
